“And” between values parts separate entries of the source, which are not always exact repeats. Equal values may be shown once.
Experiments:
Assay in all cases: In-cell proteome-wide competitive ABPP, HEK293: other DUBs and proteins
[1] = target: DUBs and other proteins in HEK293 cells (Homo sapiens, UniProt O15372); conditions: for Log2 reporter intensity values, EIF3H: TMT replicates; for Log2 reporter intensity values: EIF3H: DMSO substract (FC); for Log2 reporter intensity values: EIF3H / Log2 reporter intensity values: replicates A-C; for Log2 reporter intensity values / Log2 t-test Difference: EIF3H
[2] = target: T1, DUBs and other proteins in HEK293 cells (Homo sapiens, UniProt P45974); conditions: replicates A-C; for Log2 reporter intensity values: USP5: DMSO substract (FC); for Log2 reporter intensity values: USP5, DMSO subtracted
T1 sequence (P45974 1-858): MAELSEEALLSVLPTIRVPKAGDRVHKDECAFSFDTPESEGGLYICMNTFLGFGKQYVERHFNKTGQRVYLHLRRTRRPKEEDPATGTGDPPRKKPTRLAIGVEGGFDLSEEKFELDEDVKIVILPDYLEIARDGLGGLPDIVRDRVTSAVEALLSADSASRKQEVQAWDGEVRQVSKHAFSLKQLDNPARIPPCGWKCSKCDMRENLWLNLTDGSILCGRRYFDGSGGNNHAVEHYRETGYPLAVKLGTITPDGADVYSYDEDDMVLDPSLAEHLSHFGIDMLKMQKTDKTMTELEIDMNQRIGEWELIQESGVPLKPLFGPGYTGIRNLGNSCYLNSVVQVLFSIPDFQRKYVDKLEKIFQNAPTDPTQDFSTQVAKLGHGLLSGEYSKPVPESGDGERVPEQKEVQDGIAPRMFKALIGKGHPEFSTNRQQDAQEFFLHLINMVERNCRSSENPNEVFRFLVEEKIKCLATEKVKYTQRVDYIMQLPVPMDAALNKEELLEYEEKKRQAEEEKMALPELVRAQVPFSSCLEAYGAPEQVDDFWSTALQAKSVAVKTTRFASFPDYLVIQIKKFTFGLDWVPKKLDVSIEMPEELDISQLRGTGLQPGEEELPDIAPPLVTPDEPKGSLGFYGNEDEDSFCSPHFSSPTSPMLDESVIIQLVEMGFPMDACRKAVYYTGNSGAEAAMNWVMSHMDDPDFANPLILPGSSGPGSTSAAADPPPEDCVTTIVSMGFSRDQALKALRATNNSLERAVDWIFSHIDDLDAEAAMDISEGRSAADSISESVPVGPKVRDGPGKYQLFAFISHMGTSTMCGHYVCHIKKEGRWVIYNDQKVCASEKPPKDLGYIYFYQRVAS

[3] = target: T2, DUBs and other proteins in HEK293 cells (Homo sapiens, UniProt P51665); conditions: replicates A-C; for Log2 reporter intensity values: PSMD7: DMSO substract (FC); for Log2 reporter intensity values: PSMD7, DMSO subtracted
T2 sequence (P51665 1-324): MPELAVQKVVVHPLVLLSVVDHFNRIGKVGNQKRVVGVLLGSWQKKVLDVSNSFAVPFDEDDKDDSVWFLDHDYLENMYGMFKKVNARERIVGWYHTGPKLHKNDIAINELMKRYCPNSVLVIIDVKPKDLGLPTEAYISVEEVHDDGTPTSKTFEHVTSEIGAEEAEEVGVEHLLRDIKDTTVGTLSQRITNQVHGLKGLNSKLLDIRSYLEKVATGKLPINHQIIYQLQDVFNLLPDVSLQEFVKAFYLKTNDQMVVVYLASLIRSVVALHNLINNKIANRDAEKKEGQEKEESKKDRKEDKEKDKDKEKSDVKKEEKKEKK

[4] = target: DUBs and other proteins in HEK293 cells (Homo sapiens, UniProt P51784); conditions: replicates A-C; for Log2 reporter intensity values: USP11: DMSO substract (FC); for Log2 reporter intensity values: USP11, DMSO subtracted
[5] = target: DUBs and other proteins in HEK293 cells (Homo sapiens, UniProt Q93008); conditions: replicates A-C; for Log2 reporter intensity values: USP9X;USP9Y: DMSO substract (FC); for Log2 reporter intensity values: USP9X;USP9Y, DMSO subtracted
[6] = target: DUBs and other proteins in HEK293 cells (Homo sapiens, UniProt Q9UPU5); conditions: replicates A-C; for Log2 reporter intensity values: USP24: DMSO substract (FC); for Log2 reporter intensity values: USP24, DMSO subtracted
[7] = LDN at 5 μM, competition with ABP 2
[8] = LDN at 25 μM, competition with ABP 2

DUBs and other proteins in HEK293 cells (Homo sapiens, UniProt Q93008), sequence (Q93008 whole entry): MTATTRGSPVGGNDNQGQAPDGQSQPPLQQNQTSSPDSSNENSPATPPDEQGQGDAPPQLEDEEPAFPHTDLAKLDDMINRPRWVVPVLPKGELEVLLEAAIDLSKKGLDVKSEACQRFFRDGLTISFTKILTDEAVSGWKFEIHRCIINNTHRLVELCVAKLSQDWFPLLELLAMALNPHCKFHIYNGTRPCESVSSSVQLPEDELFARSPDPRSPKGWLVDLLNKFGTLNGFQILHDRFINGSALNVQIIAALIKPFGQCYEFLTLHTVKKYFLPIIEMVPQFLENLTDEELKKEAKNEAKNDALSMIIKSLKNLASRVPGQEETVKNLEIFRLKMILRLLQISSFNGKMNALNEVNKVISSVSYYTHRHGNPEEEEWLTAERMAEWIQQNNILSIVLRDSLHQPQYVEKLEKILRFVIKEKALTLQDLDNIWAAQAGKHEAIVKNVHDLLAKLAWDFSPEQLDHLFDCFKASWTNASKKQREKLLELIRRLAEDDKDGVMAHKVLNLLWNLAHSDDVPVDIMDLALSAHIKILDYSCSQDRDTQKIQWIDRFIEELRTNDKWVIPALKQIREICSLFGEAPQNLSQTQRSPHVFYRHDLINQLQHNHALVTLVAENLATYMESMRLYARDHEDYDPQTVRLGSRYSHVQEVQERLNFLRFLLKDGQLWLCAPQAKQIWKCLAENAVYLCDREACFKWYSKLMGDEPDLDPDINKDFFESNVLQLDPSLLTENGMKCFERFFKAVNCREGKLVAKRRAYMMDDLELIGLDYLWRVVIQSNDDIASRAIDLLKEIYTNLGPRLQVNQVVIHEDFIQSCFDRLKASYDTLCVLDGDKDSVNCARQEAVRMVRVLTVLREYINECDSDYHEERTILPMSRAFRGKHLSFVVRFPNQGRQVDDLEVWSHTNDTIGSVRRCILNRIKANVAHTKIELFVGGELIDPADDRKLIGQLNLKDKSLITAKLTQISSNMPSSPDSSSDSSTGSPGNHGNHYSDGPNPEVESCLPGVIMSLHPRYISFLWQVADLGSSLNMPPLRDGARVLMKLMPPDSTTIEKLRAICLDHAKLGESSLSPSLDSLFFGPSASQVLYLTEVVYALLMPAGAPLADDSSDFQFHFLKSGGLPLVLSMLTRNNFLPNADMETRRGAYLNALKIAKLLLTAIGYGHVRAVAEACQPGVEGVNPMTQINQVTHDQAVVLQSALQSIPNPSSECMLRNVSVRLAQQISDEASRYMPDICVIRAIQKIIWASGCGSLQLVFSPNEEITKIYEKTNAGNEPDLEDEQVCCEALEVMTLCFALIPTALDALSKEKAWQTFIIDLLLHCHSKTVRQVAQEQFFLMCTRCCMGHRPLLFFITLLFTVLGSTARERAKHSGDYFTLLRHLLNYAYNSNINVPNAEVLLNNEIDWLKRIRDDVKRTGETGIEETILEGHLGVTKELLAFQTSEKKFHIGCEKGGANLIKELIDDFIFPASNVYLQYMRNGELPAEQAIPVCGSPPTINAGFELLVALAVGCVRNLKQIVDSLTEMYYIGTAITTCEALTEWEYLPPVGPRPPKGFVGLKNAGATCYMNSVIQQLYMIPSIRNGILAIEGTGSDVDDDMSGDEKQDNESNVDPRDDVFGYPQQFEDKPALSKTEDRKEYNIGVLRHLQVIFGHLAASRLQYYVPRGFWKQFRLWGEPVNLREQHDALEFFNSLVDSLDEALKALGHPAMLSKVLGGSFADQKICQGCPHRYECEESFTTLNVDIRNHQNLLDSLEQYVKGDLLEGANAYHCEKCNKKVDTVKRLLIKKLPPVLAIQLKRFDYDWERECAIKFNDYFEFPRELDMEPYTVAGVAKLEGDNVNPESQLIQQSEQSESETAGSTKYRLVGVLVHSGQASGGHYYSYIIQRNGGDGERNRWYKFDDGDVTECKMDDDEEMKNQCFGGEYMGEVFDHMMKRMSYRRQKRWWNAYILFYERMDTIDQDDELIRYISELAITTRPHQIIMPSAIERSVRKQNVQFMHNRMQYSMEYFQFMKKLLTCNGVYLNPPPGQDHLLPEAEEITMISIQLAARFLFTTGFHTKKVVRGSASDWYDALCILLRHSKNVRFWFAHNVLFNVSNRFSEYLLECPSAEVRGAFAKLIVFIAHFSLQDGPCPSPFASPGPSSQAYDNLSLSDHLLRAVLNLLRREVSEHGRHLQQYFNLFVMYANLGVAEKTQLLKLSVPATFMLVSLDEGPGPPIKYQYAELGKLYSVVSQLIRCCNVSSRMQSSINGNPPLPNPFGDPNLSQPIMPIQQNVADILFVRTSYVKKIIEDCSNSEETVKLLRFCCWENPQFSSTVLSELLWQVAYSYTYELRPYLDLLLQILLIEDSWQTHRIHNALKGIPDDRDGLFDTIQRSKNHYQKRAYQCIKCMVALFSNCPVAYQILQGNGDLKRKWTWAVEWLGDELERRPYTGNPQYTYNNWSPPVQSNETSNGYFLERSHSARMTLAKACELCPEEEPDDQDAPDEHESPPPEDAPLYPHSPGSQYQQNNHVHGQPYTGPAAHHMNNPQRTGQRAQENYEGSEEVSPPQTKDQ
DUBs and other proteins in HEK293 cells (Homo sapiens, UniProt O15372), sequence (O15372 whole entry): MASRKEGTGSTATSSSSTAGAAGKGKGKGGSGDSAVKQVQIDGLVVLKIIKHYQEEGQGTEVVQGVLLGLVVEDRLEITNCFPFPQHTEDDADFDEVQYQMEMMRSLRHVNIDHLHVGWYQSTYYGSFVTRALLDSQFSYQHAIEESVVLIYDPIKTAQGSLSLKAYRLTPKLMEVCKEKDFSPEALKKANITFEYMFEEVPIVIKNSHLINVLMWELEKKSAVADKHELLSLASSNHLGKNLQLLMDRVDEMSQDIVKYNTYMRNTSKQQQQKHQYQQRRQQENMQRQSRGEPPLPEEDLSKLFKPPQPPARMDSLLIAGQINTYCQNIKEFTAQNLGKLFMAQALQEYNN
DUBs and other proteins in HEK293 cells (Homo sapiens, UniProt P51784), sequence (P51784 whole entry): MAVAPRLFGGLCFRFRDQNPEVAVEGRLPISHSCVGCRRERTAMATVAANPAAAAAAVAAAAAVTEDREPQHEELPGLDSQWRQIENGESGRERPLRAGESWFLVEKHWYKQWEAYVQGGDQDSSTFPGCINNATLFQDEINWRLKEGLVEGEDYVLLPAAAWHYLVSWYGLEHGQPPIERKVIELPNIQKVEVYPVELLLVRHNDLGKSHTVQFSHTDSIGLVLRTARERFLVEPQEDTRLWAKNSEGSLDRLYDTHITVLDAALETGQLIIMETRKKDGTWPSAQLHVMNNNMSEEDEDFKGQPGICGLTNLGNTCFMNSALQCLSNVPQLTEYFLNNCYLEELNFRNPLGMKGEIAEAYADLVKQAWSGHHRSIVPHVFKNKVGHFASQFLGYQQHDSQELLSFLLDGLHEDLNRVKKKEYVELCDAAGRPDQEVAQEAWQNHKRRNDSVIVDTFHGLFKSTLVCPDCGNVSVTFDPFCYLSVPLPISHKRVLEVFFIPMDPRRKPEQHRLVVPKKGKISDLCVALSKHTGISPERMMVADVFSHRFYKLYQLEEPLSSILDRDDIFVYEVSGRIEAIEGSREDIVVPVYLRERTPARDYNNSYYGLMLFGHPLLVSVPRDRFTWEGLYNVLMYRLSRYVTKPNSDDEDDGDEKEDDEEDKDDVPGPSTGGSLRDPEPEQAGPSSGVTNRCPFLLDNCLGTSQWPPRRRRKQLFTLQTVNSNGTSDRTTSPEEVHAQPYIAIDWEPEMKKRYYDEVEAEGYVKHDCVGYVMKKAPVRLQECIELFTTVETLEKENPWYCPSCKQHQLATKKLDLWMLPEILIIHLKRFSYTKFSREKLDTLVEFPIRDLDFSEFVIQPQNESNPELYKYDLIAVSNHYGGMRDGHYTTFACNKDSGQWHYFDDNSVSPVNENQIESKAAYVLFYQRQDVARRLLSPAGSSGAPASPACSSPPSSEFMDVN

C#Cc1cnc2[nH]cc(-c3cccc4c3CCN4C(=O)[C@@H]3CCCN3C#N)c2c1 [Compound 2]
Log2 reporter intensity values, EIF3H ([1]; 20 nM ABP 2 (10 min), no competitor, All values): 0.02449 and 0.02357 and 0.02975
Log2 reporter intensity values, EIF3H ([1]; 20 nM ABP 2 (10 min), no competitor, DMSO subtracted): -0.005103 and -0.006015 and 0.0001635
Log2 reporter intensity values: EIF3H ([1]; 20 nM ABP 2 alone): 0.9965 and 0.9958 and 1
Log2 reporter intensity values ([1]; 20 nM ABP 2, DMSO subtracted): -0.005103 and -0.006015 and 0.0001635 and -0.003675 and -0.004305 and -3.08E-05
Log2 t-test Difference ([1]; ABP 2 - 20 nM): -0.003651
Log2 reporter intensity values: USP5 ([2]; 20 nM ABP 2 alone): 0.9172 and 0.9432 and 0.9583
Log2 reporter intensity values ([2]; 20 nM ABP 2): -0.1247 and -0.08438 and -0.06148 and -0.08313 and -0.05714
Log2 reporter intensity values: PSMD7 ([3]; 20 nM ABP 2 alone): 0.8915
Log2 reporter intensity values ([3]; 20 nM ABP 2): 0.1122 and -0.1657 and 0.02 and 0.07832
Log2 reporter intensity values: USP11 ([4]; 20 nM ABP 2 alone): 0.9204 and 1.006 and 0.9863
Log2 reporter intensity values ([4]; 20 nM ABP 2): -0.1196 and 0.008385 and -0.01996 and -0.07989 and 0.005492 and -0.01408
Log2 reporter intensity values: USP9X;USP9Y ([5]; 20 nM ABP 2 alone): 0.9211 and 0.9416 and 0.9589
Log2 reporter intensity values ([5]; 20 nM ABP 2): -0.08683 and -0.06047 and -0.07892 and -0.05844 and -0.04108
Log2 reporter intensity values: USP24 ([6]; 20 nM ABP 2 alone): 1.118 and 1.126 and 1.127
Log2 reporter intensity values ([6]; 20 nM ABP 2): 0.1605 and 0.1713 and 0.1729 and 0.1143 and 0.1227 and 0.1239

CC(=O)O/N=C1\C(=O)N(Cc2cc(Cl)ccc2Cl)c2ccc(Cl)cc21 [LDN]
Log2 reporter intensity values, EIF3H ([1]; 5 μM LDN-57444 (60 min) + 20 nM ABP 2 (10 min), All values): 0.06362 and 0.03651 and 0.05305
Log2 reporter intensity values, EIF3H ([1]; 5 μM LDN-57444 (60 min) + 20 nM ABP 2 (10 min), DMSO subtracted): 0.03403 and 0.006918 and 0.02346
Log2 reporter intensity values, EIF3H ([1]; 25 μM LDN-57444 (60 min) + 20 nM ABP 2 (10 min), All values): 0.05041 and 0.03867 and 0.01604
Log2 reporter intensity values, EIF3H ([1]; 25 μM LDN-57444 (60 min) + 20 nM ABP 2 (10 min), DMSO subtracted): 0.02082 and 0.009076 and -0.01355
Log2 t-test Difference ([1]; LDN - 5 μM): 0.02512
Log2 reporter intensity values ([1]; LDN at 5 μM, DMSO subtracted): 0.03403 and 0.006918 and 0.02346
Log2 reporter intensity values ([1]; LDN at 25 μM, DMSO subtracted): 0.02082 and 0.009076 and -0.01355
Log2 reporter intensity values ([1]; LDN_5 μM, DMSO subtracted): 0.02373 and 0.004663 and 0.01625
Log2 reporter intensity values ([1]; LDN_25 μM, DMSO subtracted): 0.01439 and 0.006167 and -0.009494
Log2 reporter intensity values: EIF3H [1, 7]: 1.024 and 1.005 and 1.016
Log2 reporter intensity values: EIF3H [1, 8]: 1.015 and 1.006 and 0.9907
Log2 reporter intensity values: USP5 [2, 7]: 1.037 and 0.9788 and 0.9532
Log2 reporter intensity values: USP5 [2, 8]: 1.021 and 0.9648 and 0.9864
Log2 reporter intensity values ([2]; LDN at 5 μM): 0.05306 and -0.03094 and -0.06922
Log2 reporter intensity values ([2]; LDN at 25 μM): 0.02936 and -0.0517 and -0.01971
Log2 reporter intensity values ([2]; LDN_5 μM): 0.03714 and -0.02154 and -0.04717
Log2 reporter intensity values ([2]; LDN_25 μM): 0.02024 and -0.03553 and -0.01389
Log2 reporter intensity values: PSMD7 [3, 7]: 1.218 and 1.097 and 1.111
Log2 reporter intensity values: PSMD7 [3, 8]: 1.26 and 1.205 and 1.158
Log2 reporter intensity values ([3]; LDN at 5 μM): 0.2849 and 0.1342 and 0.1516
Log2 reporter intensity values ([3]; LDN at 25 μM): 0.3338 and 0.2689 and 0.2118
Log2 reporter intensity values ([3]; LDN_5 μM): 0.2157 and 0.09493 and 0.1083
Log2 reporter intensity values ([3]; LDN_25 μM): 0.2577 and 0.2023 and 0.1556
Log2 reporter intensity values: USP11 [4, 7]: 1.03 and 1.059 and 1.019
Log2 reporter intensity values: USP11 [4, 8]: 1.058 and 0.9885 and 1.048
Log2 reporter intensity values ([4]; LDN at 5 μM): 0.04194 and 0.08295 and 0.02661
Log2 reporter intensity values ([4]; LDN at 25 μM): 0.082 and -0.01664 and 0.06827
Log2 reporter intensity values ([4]; LDN_5 μM): 0.02916 and 0.05885 and 0.01828
Log2 reporter intensity values ([4]; LDN_25 μM): 0.05815 and -0.0118 and 0.04812
Log2 reporter intensity values: USP9X;USP9Y [5, 7]: 0.9588 and 0.9416 and 0.9642
Log2 reporter intensity values: USP9X;USP9Y [5, 8]: 0.918 and 0.963 and 0.9662
Log2 reporter intensity values ([5]; LDN at 5 μM): -0.06063 and -0.08675 and -0.05259
Log2 reporter intensity values ([5]; LDN at 25 μM): -0.1235 and -0.05434 and -0.04956
Log2 reporter intensity values ([5]; LDN_5 μM): -0.04118 and -0.05839 and -0.03582
Log2 reporter intensity values ([5]; LDN_25 μM): -0.08207 and -0.03699 and -0.0338
Log2 reporter intensity values: USP24 [6, 7]: 0.8375 and 1.105 and 1.062
Log2 reporter intensity values: USP24 [6, 8]: 1.15 and 1.015 and 1.054
Log2 reporter intensity values ([6]; LDN at 5 μM): -0.2559 and 0.1441 and 0.08741
Log2 reporter intensity values ([6]; LDN at 25 μM): 0.2018 and 0.02211 and 0.07566
Log2 reporter intensity values ([6]; LDN_5 μM): -0.1659 and 0.1016 and 0.0591
Log2 reporter intensity values ([6]; LDN_25 μM): 0.1468 and 0.01208 and 0.05048

Reference: publication PMC7366380, “Discovery of a Potent and Selective Covalent Inhibitor and Activity-Based Probe for the Deubiquitylating Enzyme UCHL1, with Antifibrotic Activity” (Journal of the American Chemical Society, 2020)
